From article PMC3041981 (ACS medicinal chemistry letters, 2010) come the findings set out here.

Structures are written as SMILES. Like-named read-outs stand apart in the source and are kept apart here.

For assay [1], the system named is locomotor activity in mice. Description: Locomotor stimulant activity in mice. Type of assay: in vivo. Particulars: for Time course of locomotor stimulant effect after injection: 30-min period at the start of each of four hours after administration.
The next assay concerns the target DAT (Rattus norvegicus, UniProt P23977). Description: DAT binding in rat brain membranes.
The target of another assay is SERT (Rattus norvegicus, UniProt P31652). The assay can be described thus: SERT binding in rat brain membranes. Particulars: SERT versus DAT and NET binding.
Chain of SERT (P31652 whole entry): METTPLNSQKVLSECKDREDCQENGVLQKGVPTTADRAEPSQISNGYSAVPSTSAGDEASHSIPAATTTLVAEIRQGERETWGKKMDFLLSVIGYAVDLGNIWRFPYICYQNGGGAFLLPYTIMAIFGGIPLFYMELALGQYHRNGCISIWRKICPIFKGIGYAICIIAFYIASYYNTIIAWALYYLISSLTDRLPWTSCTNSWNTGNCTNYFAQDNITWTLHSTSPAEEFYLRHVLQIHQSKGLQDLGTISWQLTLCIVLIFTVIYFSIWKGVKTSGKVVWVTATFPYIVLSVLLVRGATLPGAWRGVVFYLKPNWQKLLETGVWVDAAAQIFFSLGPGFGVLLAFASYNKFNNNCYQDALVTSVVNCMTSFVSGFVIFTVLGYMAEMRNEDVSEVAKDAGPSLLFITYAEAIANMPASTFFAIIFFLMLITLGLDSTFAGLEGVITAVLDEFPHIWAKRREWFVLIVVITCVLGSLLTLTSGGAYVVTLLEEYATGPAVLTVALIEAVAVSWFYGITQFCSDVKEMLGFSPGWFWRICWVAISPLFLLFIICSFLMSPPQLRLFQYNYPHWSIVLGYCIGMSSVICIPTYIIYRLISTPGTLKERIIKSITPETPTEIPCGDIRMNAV

Chain of DAT (P23977 whole entry): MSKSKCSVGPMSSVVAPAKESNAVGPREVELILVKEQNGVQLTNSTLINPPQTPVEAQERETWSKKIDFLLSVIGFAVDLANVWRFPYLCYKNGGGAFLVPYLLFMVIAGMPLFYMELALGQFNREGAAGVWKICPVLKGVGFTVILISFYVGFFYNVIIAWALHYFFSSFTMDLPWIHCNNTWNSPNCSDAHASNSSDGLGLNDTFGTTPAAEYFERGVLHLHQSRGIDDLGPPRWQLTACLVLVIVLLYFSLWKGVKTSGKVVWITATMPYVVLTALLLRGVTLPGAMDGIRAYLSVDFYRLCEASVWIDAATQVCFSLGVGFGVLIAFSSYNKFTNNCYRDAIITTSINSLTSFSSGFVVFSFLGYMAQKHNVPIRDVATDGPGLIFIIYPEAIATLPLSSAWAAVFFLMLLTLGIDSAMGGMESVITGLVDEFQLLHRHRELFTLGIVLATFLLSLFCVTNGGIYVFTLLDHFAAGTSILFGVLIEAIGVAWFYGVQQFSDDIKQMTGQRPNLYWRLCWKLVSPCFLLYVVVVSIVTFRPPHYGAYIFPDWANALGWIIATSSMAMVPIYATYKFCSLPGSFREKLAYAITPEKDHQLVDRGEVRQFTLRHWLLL

Take `NC(=O)C[S+]([O-])C(c1ccccc1)c1ccccc1` (racemic) [(±)-1, 2-[(diphenylmethyl)sulfinyl]acetamide]: in assay [1], the “Time course of locomotor stimulant effect after injection” value (“Time course” below) is “evident up to four hours after injection”.
As to `[O-][S+](CCNCCCc1ccccc1)C(c1ccccc1)c1ccccc1` (stereo not shown) [9a], on DAT, the “DAT binding affinity, comparison in words” value is given as “most potent DAT analogue in the series”.
For the molecule `CN(C)CC[S+]([O-])C(c1ccc(Cl)cc1)c1ccc(Cl)cc1` (stereo not shown) [9d], the “Transporter selectivity in words” value on SERT was “SERT-selective”.
As for `NC(=O)C[S@+]([O-])C(c1ccccc1)c1ccccc1` [(+)-1], the “Time course” value in assay [1] was “evident up to four hours after injection”.
For `NC(=O)C[S@@+]([O-])C(c1ccccc1)c1ccccc1` [(−)-1], the “Time course” value in assay [1] was “evident up to four hours after injection”. For the same molecule, the “DAT binding affinity, comparison in words” value at DAT (rat brain membranes, within the series) was “slightly higher affinity than the S”.
`COC(=O)[C@H]1[C@@H](OC(=O)c2ccccc2)C[C@@H]2CC[C@H]1N2C` [cocaine]: in assay [1] (after injection, 6 mice per point, maximal effect compared with cocaine), the “Effect on locomotor activity (horizontal activity counts)” value was “greatest among the drugs”.
